In this experiment the target is T1, TEAD1 (Homo sapiens, UniProt P28347).
T1 construct: endogenous in cells; host or cells: MCF-7
T1 sequence (P28347 whole entry): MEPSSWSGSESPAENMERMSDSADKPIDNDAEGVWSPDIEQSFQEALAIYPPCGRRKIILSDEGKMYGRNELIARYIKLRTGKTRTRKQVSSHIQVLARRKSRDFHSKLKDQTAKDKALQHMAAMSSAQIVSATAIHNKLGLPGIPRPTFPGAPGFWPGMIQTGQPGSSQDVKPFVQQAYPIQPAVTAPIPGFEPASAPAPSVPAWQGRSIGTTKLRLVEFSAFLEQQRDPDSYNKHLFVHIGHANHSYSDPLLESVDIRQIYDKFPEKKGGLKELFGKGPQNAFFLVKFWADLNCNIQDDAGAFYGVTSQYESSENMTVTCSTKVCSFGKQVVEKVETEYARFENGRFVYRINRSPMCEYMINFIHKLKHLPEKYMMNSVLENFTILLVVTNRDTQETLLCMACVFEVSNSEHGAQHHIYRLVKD
Kind of experiment: TEAD1-Luciferase reporter assay (MCF-7 cell-based TEAD1-Luc assay). The following applies: cells treated with compound overnight, luciferase chemiluminescence readout. Here is the method:
TEAD1-Luciferase Reporter Assay to Characterize the Pharmacological Properties of the Tead1 Covalent Inhibitors
FIG. 1 is a schematic illustration of the mechanism of TEAD1 inhibition by the disclosed compounds, which is the theoretical basis for the development of a TEAD-YAP/TAZ cell-based functional assay to characterize the pharmacological properties of the synthesized inhibitor compounds. The MCF-7 cell-based TEAD1-Luc assay for the IC50 measurement was performed as below. Compounds 2, 4, 5, and 7, representing different chemical scaffolds, were characterized. About 200 μL of culture medium was placed in each of the 10^4 cell/well in a 96-well plate. The next day the cells were treated with the synthesized compounds for overnight. The luciferase activity was measured with a chemiluminescent assay kit. Specifically, the plate was equilibrated at room temperature. […] and 50 μL of the medium was left inside. To each well was added 50 μL Luciferase reagents. The plates were gently rocked for more than about 15 minutes at room temperature. The luminescence signal was then read and recorded. Table 2 below summarizes the measured IC50 values for the disclosed compounds.
A general note: A reporter such as luciferase makes a cellular process visible.
With `C=CC(=O)N[C@@H]1CC[C@H](Oc2cccc(C(F)(F)F)c2)C1` (single isomer, unassigned) [Compound 41, N-((1R*,3S*)-3-(3-(trifluoromethyl)phenoxy)cyclopentyl)acrylamide], the 50% inhibitory concentration (IC50) is at most 100 nM.

`C=CC(=O)N[C@H]1CC[C@@H](Oc2cccc(C(F)(F)F)c2)C1` (single isomer, unassigned) [Compound 42, N-((1S*,3R*)-3-(3-(trifluoromethyl)phenoxy)cyclopentyl)acrylamide]: the IC50 was 100 to 5000 nM.

`C#Cc1cccc(Oc2ccccc2NC(=O)CCl)c1` [Compound 1]: the IC50 was at least 5000 nM.

Turning to `C#Cc1cccc(Oc2cccc(NC(=O)C=C)c2)c1` [Compound 2], the 50% inhibitory concentration (IC50) fell in the range of 100 to 5000 nM.

As for `C#Cc1cccc(Oc2ccc(NC(=O)C=C)cc2)c1` [Compound 3], the IC50 was at least 5000 nM.

In the case of `C=CC(=O)Nc1cccc(Oc2cccc(C(F)(F)F)c2)c1` [Compound 4], the 50% inhibitory concentration (IC50) was at most 100 nM.

`C#CCCCO/N=C1\CCCc2cc(NC(=O)C=C)ccc21` [Compound 5]: the 50% inhibitory concentration (IC50) is at least 5000 nM.

For the molecule `C=CC(=O)Nc1ccc2c(c1)CCC/C2=N\OCCCCC` [Compound 6], the half-inhibitory concentration (IC50) is at least 5000 nM.

With `C#CCCCO/N=C1/CCc2cc(NC(=O)C=C)ccc21` [Compound 7], the IC50 was at least 5000 nM.

On to `C=CC(=O)Nc1ccc2c(c1)CC/C2=N/OCCCCC` [Compound 8], for which the IC50 is at least 5000 nM.

`C=CC(=O)Nc1cccc(Oc2cccc(OC)c2)c1` [Compound 9, N-(3-(3-methoxyphenoxy)phenyl)acrylamide]: the half-maximal inhibitory concentration (IC50) was at most 100 nM.

With `C=CC(=O)Nc1cccc(Oc2csc(C(F)(F)F)c2)c1` [Compound 10, N-(3-((5-(trifluoromethyl)thiophen-3-yl)oxy)phenyl)acrylamide], the IC50 was at most 100 nM.

For `C=CC(=O)Nc1ccc(Oc2cccc(C(F)(F)F)c2)s1` [Compound 11, N-(5-(3-(trifluoromethyl)phenoxy)thiophen-2-yl)acrylamide], the IC50 is at most 100 nM.

In the case of `C=CC(=O)Nc1cc(F)cc(Oc2ccc(C(F)(F)F)cc2)c1` [Compound 12, N-(3-fluoro-5-(4-(trifluoromethyl)phenoxy)phenyl)acrylamide], the IC50 was at most 100 nM.

Turning to `C=CC(=O)Nc1cccc(Oc2cc(C(F)(F)F)ccn2)c1` [Compound 13, N-(3-((4-(trifluoromethyl)pyridin-2-yl)oxy)phenyl)acrylamide], the IC50 was at most 100 nM.

As for `C=CC(=O)Nc1cccc(Oc2ccc(C(F)(F)F)cn2)c1` [Compound 14, N-(3-((5-(trifluoromethyl)pyridin-2-yl)oxy)phenyl)acrylamide], the IC50 is at most 100 nM.

Consider `CCCCCO/N=C1\CCc2cc(NC(=O)/C=C/CN(C)C)ccc21` [Compound 15, (E)-4-(dimethylamino)-N—((E)-1-((pentyloxy)imino)-2,3-dihydro-1H-inden-5-yl)but-2-enamide], for which the IC50 was at most 100 nM.

Regarding `C=CC(=O)Nc1ccc2c(c1)OCC/C2=N\OCCCCC` [Compound 16, (E)-N-(4-((pentyloxy)imino)chroman-7-yl)acrylamide], the IC50 is at most 100 nM.

As for `C=CC(=O)Nc1ccc2cc(OCCCC)ccc2c1` [Compound 17, N-(6-butoxynaphthalen-2-yl)prop-2-enamide], the IC50 was at most 100 nM.

On to `C=CC(=O)Nc1ccc2nc(OCCCC)ccc2c1` [Compound 18, N-(2-butoxyquinolin-6-yl)acrylamide], for which the IC50 was at most 100 nM.

`C=CC(=O)Nc1ccc2c(OCCCCC)nccc2c1` [Compound 19, N-(1-(pentyloxy)isoquinolin-6-yl)acrylamide]: the IC50 is at most 100 nM.

On to `C=CC(=O)Nc1ccc2c(OCCCCC)cccc2c1` [Compound 20, N-(5-(pentyloxy)naphthalen-2-yl)acrylamide], for which the IC50 is at most 100 nM.

As to `C=CC(=O)Nc1ccc2c(Oc3ccc(C(F)(F)F)cn3)cccc2c1` [Compound 21, N-(5-((5-(trifluoromethyl)pyridin-2-yl)oxy)naphthalen-2-yl)acrylamide], the IC50 is at most 100 nM.

On to `C=CC(=O)Nc1ccc(-c2cc(C(F)(F)F)on2)c(C)c1` [Compound 22, N-(3-methyl-4-(5-(trifluoromethyl)isoxazol-3-yl)phenyl)acrylamide], for which the IC50 is at most 100 nM.

Take `C=CC(=O)Nc1ccc(-c2cc(C(F)(F)F)on2)c(Cl)c1` [Compound 23, N-(3-chloro-4-(5-(trifluoromethyl)isoxazol-3-yl)phenyl)acrylamide]: the IC50 was at most 100 nM.

As for `C=CC(=O)Nc1ccc(-c2ccn(CCCCC)n2)cc1` [Compound 24, N-(4-(1-pentyl-1H-pyrazol-3-yl)phenyl)acrylamide], the IC50 is at most 100 nM.

Take `C=CC(=O)Nc1ccc2c(c1)CCc1cn(CCCCC)nc1-2` [Compound 25]: the IC50 is 100 to 5000 nM.

Turning to `C=CC(=O)Nc1ccc(-c2cc(CCCC)on2)cc1` [Compound 26, N-(4-(5-butylisoxazol-3-yl)phenyl)acrylamide], the IC50 was at most 100 nM.

Turning to `C=CC(=O)Nc1ccc2c(c1)CCc1c-2noc1CCCC` [Compound 27, N-(3-butyl-4,5-dihydronaphtho[1,2-c]isoxazol-7-yl)acrylamide], the IC50 is 100 to 5000 nM.

In the case of `C=CC(=O)Nc1ccc(-c2cc(C(F)(F)F)on2)cc1` [Compound 28, N-(4-(5-(trifluoromethyl)isoxazol-3-yl)phenyl)acrylamide], the IC50 is at most 100 nM.

For `C=C(F)C(=O)Nc1ccc2c(c1)CCC/C2=N\OCCCCC` [Compound 29, (E)-2-fluoro-N-(5-((pentyloxy)imino)-5,6,7,8-tetrahydronaphthalen-2-yl)acrylamide], the half-inhibitory concentration (IC50) lay within 100 to 5000 nM.

As to `C=CC(=O)Nc1ccc(-c2cc(C3CC3)on2)cc1` [Compound 30, N-(4-(5-cyclopropylisoxazol-3-yl)phenyl)acrylamide], the IC50 lay in the range of 100 to 5000 nM.

`C=CC(=O)Nc1ccc(-c2nocc2C(F)(F)F)cc1` [Compound 31, N-(4-(4-(trifluoromethyl)isoxazol-3-yl)phenyl)acrylamide]: the IC50 was at most 100 nM.

On to `C=CC(=O)Nc1ccc(-c2cc(C(F)(F)F)no2)c(Cl)c1` [Compound 32, N-(3-chloro-4-(3-(trifluoromethyl)isoxazol-5-yl)phenyl)acrylamide], for which the half-inhibitory concentration (IC50) was at most 100 nM.

In the case of `C=CC(=O)Nc1ccc(-c2noc(C(F)(F)F)n2)c(Cl)c1` [Compound 33, N-(3-chloro-4-(5-(trifluoromethyl)-1,2,4-oxadiazol-3-yl)phenyl)acrylamide], the IC50 was at most 100 nM.

For the molecule `C=CC(=O)Nc1ccc(-n2cc(C(F)(F)F)nn2)c(Cl)c1` [Compound 34, N-(3-chloro-4-(4-(trifluoromethyl)-1H-1,2,3-triazol-1-yl)phenyl)acrylamide], the IC50 was at most 100 nM.

Take `C=CC(=O)Nc1ccc(-n2ncc(C(F)(F)F)n2)c(Cl)c1` [Compound 35, N-(3-chloro-4-(4-(trifluoromethyl)-2H-1,2,3-triazol-2-yl)phenyl)acrylamide]: the IC50 is at most 100 nM.

In the case of `C=CC(=O)Nc1cc(F)cc(Oc2cccc(C(F)(F)F)c2)c1` [Compound 36, N-(3-fluoro-5-(3-(trifluoromethyl)phenoxy)phenyl)acrylamide], the IC50 was at most 100 nM.

As to `C=CC(=O)Nc1cc(Oc2cccc(C(F)(F)F)c2)ccc1F` [Compound 37, N-(2-fluoro-5-(3-(trifluoromethyl)phenoxy)phenyl)acrylamide], the IC50 was at most 100 nM.

`C=CC(=O)Nc1cccc(Oc2ccc(C(F)(F)F)cc2)c1` [Compound 38, N-(3-(4-(trifluoromethyl)phenoxy)phenyl)acrylamide]: the IC50 is at most 100 nM.

`C=CC(=O)NC1COCC(Oc2cccc(C(F)(F)F)c2)C1` (stereo not shown) [Compound 39, N-(5-(3-(trifluoromethyl)phenoxy)tetrahydro-2H-pyran-3-yl)acrylamide]: the IC50 was in the range of 100 to 5000 nM.

For `C=CC(=O)Nc1cccc(OC2CCC(F)(F)CC2)c1` [Compound 40, N-(3-((4,4-difluorocyclohexyl)oxy)phenyl)acrylamide], the IC50 was at most 100 nM.

Regarding `C=CC(=O)N[C@@H]1CC[C@@H](Oc2cccc(C(F)(F)F)c2)C1` [Compound 43, N-((1R,3R)-3-(3-(trifluoromethyl)phenoxy)cyclopentyl)acrylamide], the half-inhibitory concentration (IC50) lay in the range of 100 to 5000 nM.

Take `C=CC(=O)N[C@H]1CC[C@H](Oc2cccc(C(F)(F)F)c2)C1` [Compound 44, N-((1S,3S)-3-(3-(trifluoromethyl)phenoxy)cyclopentyl)acrylamide]: the IC50 lay in the range of 100 to 5000 nM.

As to `C=CC(=O)NC1CCC(Oc2cccc(C(F)(F)F)c2)C1` (stereo not shown) [Compound 45, N-(3-(3-(trifluoromethyl)phenoxy)cyclopentyl)acrylamide], the IC50 was 100 to 5000 nM.

As for `C=CC(=O)NC1CCC(Oc2cc(C(F)(F)F)on2)C1` (stereo not shown) [Compound 46, N-(3-((5-(trifluoromethyl)isoxazol-3-yl)oxy)cyclopentyl)acrylamide], the IC50 lay within 100 to 5000 nM.

As for `C=CC(=O)Nc1ccc2c(c1)CCC/C2=N\OCC` [Compound 47, (E)-N-(5-(ethoxyimino)-5,6,7,8-tetrahydronaphthalen-2-yl)acrylamide], the IC50 is at most 100 nM.

On to `C=CC(=O)Nc1ccc2c(c1)CCC/C2=N\OCCOCC` [Compound 48, (E)-N-(5-((2-ethoxyethoxy)imino)-5,6,7,8-tetrahydronaphthalen-2-yl)acrylamide], for which the IC50 was at most 100 nM.

Take `C=CC(=O)Nc1ccc2c(c1)CCC/C2=N\OCC(C)C` [Compound 49, (E)-N-(5-(isobutoxyimino)-5,6,7,8-tetrahydronaphthalen-2-yl)acrylamide]: the IC50 is at most 100 nM.

A word on the IC50: it is the concentration at which inhibition is half-maximal.
